In US20240116951A1, “HETEROCYCLIC COMPOUNDS AND USES THEREOF” (Kumquat Biosciences Inc., priority 2022, published 2024):

What was measured:
Format in all cases: binding
KRAS G12S = molecular target: T1, KRAS G12S (Homo sapiens, UniProt P01116, G12S); test: HTRF assay of K-Ras G12S interaction with SOS1 (PPI-HTRF); details: 5 nM KRAS G12S, read-out: PPI-HTRF-5 nM KRAS G12S
T1 construct: made in house; host or cells: E. coli, e.g. BL21 (DE3)
How it was run: (§1)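 Read-out: HTRF ratio 665/620 nm (ex 337 nm) after ~10 min or longer. Donor anti-GST-Eu(K) on GST-K-Ras and acceptor anti-6His-XL665 on His-hSOS1, in HEPES pH 7.4 buffer with DTT, BSA and Igepal. Duplicate dilution series from 10 μM down to 0.01 μM gave IC50 values.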

KRAS G12D = molecular target: T2, KRAS G12D (Homo sapiens, UniProt P01116, G12D); test: HTRF assay of K-Ras G12D interaction with SOS1 (PPI-HTRF); details: HTRF, 5 nM KRAS G12D; read-out: PPI-HTRF-5 nM KRAS G12D
T2 construct: made in house; host or cells: E. coli, e.g. BL21 (DE3)
T2 sequence (P01116 1-188 isoform P01116-2 G12D): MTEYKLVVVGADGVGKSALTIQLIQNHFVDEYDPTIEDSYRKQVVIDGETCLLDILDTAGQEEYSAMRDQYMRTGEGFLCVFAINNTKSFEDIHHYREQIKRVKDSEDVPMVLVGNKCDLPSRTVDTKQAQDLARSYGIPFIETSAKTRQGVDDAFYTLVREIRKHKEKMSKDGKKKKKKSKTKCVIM
How it was run: as §1

KRAS WT = molecular target: T3, KRAS WT (Homo sapiens, UniProt P01116); test: HTRF assay of wildtype K-Ras interaction with SOS1 (PPI-HTRF); details: HTRF, 5 nM KRAS WT; read-out: PPI-HTRF-5 nM KRAS WT
T3 construct: made in house; host or cells: E. coli, e.g. BL21 (DE3)
T3 sequence (P01116 1-188 isoform P01116-2): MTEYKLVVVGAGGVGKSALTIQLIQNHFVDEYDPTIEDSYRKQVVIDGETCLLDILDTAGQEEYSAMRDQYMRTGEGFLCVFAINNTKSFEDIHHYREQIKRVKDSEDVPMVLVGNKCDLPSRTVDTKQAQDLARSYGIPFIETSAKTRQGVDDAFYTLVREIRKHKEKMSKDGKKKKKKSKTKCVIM
How it was run: as §1

T1 sequence (P01116 1-188 isoform P01116-2 G12S): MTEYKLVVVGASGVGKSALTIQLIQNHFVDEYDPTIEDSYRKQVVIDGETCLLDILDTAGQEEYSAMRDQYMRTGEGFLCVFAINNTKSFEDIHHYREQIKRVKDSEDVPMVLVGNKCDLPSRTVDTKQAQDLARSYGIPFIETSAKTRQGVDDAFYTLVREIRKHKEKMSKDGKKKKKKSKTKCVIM

Row | IC50 (KRAS G12S) [µM] | IC50 (KRAS G12D) [µM] | IC50 (KRAS WT) [µM] | Compound
1 | < 5 | < 5 | < 5 | Cc1nc(C(C)C)nn1C(=O)N1CCC12CCN(c1nc(OC[C@@]34CCCN3C[C@H](F)C4)nc3c(F)c(-c4ccc(F)c5sc(N)c(C#N)c45)c(Cl)cc13)C2 (stereo partly drawn) [Compound 266, 2-amino-4-(6-chloro-8-fluoro-2-(((2R,7aS)-2-fluorotetrahydro-1H-pyrrolizin-7a(5H)-yl)methoxy)-4-(1-(3-isopropyl-5-methyl-1H-1,2,4-triazole-1-carbonyl)-1,6-diazaspiro[3.4]octan-6-yl)quinazolin-7-yl)-7-fluorobenzo[b]thiophene-3-carbonitrile]
2 | < 5 | < 5 | < 5 | N#Cc1c(N)sc2c(F)ccc(-c3c(Cl)cc4c(N5CCC6(CCN6C(=O)n6cncn6)C5)nc(OC[C@@]56CCCN5C[C@H](F)C6)nc4c3F)c12 (stereo partly drawn) [Compound 221, (4R)-4-(4-(1-(1H-1,2,4-triazole-1-carbonyl)-1,6-diazaspiro[3.4]octan-6-yl)-6-chloro-8-fluoro-2-(((2R,7aS)-2-fluorotetrahydro-1H-pyrrolizin-7a(5H)-yl)methoxy)quinazolin-7-yl)-2-amino-7-fluorobenzo[b]thiophene-3-carbonitrile]
3 | < 5 | < 5 | < 5 | Nc1nc2c(-c3c(Cl)cc4c(N5CCCC6(CCN6)CC5)nc(OC[C@@]56CCCN5C[C@H](F)C6)nc4c3F)ccc(F)c2s1 (stereo partly drawn) [Compound 276, 4-(6-chloro-8-fluoro-2-(((2R,7aS)-2-fluorotetrahydro-1H-pyrrolizin-7a(5H)-yl)methoxy)-4-(1,7-diazaspiro[3.6]decan-7-yl)quinazolin-7-yl)-7-fluorobenzo[d]thiazol-2-amine]
4 | < 5 | < 5 | < 5 | N#Cc1cnn(C(=O)N2CCC23CCN(c2nc(OC[C@@]45CCCN4C[C@H](F)C5)nc4c(F)c(-c5ccc(F)c6sc(N)c(C#N)c56)c(Cl)cc24)C3)c1 (stereo partly drawn) [Compound 309, 1-(6-(7-(2-amino-3-cyano-7-fluorobenzo[b]thiophen-4-yl)-6-chloro-8-fluoro-2-(((2R,7aS)-2-fluorotetrahydro-1H-pyrrolizin-7a(5H)-yl)methoxy)quinazolin-4-yl)-1,6-diazaspiro[3.4]octane-1-carbonyl)-1H-pyrazole-4-carbonitrile]
5 | < 5 | < 5 | < 5 | N#Cc1c(N)sc2c(F)ccc(-c3c(Cl)cc4c(N5CCCC6(CCCN6C(=O)n6cncn6)C5)nc(OC[C@@]56CCCN5C[C@H](F)C6)nc4c3F)c12 (stereo partly drawn) [Compound 208, 4-(4-(1-(1H-1,2,4-triazole-1-carbonyl)-1,7-diazaspiro[4.5]decan-7-yl)-6-chloro-8-fluoro-2-(((2R,7aS)-2-fluorotetrahydro-1H-pyrrolizin-7a(5H)-yl)methoxy)quinazolin-7-yl)-2-amino-7-fluorobenzo[b]thiophene-3-carbonitrile]
6 | < 5 | < 5 | < 5 | N#Cc1c(N)sc2c(F)ccc(-c3c(Cl)cc4c(N5CCC6(CCN6C(=O)n6cnc(C(F)(F)F)n6)C5)nc(OC[C@@]56CCCN5C[C@H](F)C6)nc4c3F)c12 (stereo partly drawn) [Compound 292, 2-amino-4-(6-chloro-8-fluoro-2-(((2R,7aS)-2-fluorotetrahydro-1H-pyrrolizin-7a(5H)-yl)methoxy)-4-(1-(3-(trifluoromethyl)-1H-1,2,4-triazole-1-carbonyl)-1,6-diazaspiro[3.4]octan-6-yl)quinazolin-7-yl)-7-fluorobenzo[b]thiophene-3-carbonitrile]
7 | < 5 | < 5 | < 5 | Nc1nc2c(-c3c(Cl)cc4c(N5CCC6(CCN6C(=O)n6cncn6)C5)nc(OC[C@@]56CCCN5C[C@H](F)C6)nc4c3F)ccc(F)c2s1 (stereo partly drawn) [Compound 264, (6-(7-(2-amino-7-fluorobenzo[d]thiazol-4-yl)-6-chloro-8-fluoro-2-(((2R,7aS)-2-fluorotetrahydro-1H-pyrrolizin-7a(5H)-yl)methoxy)quinazolin-4-yl)-1,6-diazaspiro[3.4]octan-1-yl)(1H-1,2,4-triazol-1-yl)methanone]

Further lines, the compound ahead of its results:

Row | Compound | IC50 (KRAS G12S) [µM] | IC50 (KRAS G12D) [µM] | IC50 (KRAS WT) [µM]
8 | C[C@H](Oc1nc(N2CC[C@@]3(CCN3C(=O)n3cncn3)C2)c2cc(Cl)c(-c3ccc(F)c4sc(N)c(C#N)c34)c(F)c2n1)[C@@H]1CCCN1C (single isomer, unassigned) [Compound 299] | < 5 | < 5 | < 5
9 | C[C@H](Oc1nc(N2CCCC3(CCN3C(=O)[C@@H]3C[C@H]3C#N)C2)c2cc(Cl)c(-c3ccc(F)c4sc(N)c(C#N)c34)c(F)c2n1)[C@@H]1CCCN1C (stereo partly drawn) [Compound 235, 2-amino-4-(6-chloro-4-(1-((1R,2R)-2-cyanocyclopropane-1-carbonyl)-1,6-diazaspiro[3.5]nonan-6-yl)-8-fluoro-2-((S)-1-((S)-1-methylpyrrolidin-2-yl)ethoxy)quinazolin-7-yl)-7-fluorobenzo[b]thiophene-3-carbonitrile] | < 5 | < 5 | < 5
10 | N#CCC1CN(c2nc(OC[C@@]34CCCN3C[C@H](F)C4)nc3c(F)c(-c4ccc(F)c5sc(N)c(C#N)c45)c(Cl)cc23)CC12CCN2C(=O)n1cnc(Cl)n1 (stereo partly drawn) [Compound 328, 2-amino-4-(6-chloro-4-(1-(3-chloro-1H-1,2,4-triazole-1-carbonyl)-8-(cyanomethyl)-1,6-diazaspiro[3.4]octan-6-yl)-8-fluoro-2-(((2R,7aS)-2-fluorotetrahydro-1H-pyrrolizin-7a(5H)-yl)methoxy)quinazolin-7-yl)-7-fluorobenzo[b]thiophene-3-carbonitrile] | < 5 | < 5 | < 5
11 | C[C@H]1CN[C@]12CCN(c1nc(OC[C@@]34CCCN3C[C@H](F)C4)nc3c(F)c(-c4ccc(F)c5sc(N)c(C#N)c45)c(Cl)cc13)C2 [Compound 334, 2-amino-4-(6-chloro-8-fluoro-2-(((2R,7aS)-2-fluorotetrahydro-1H-pyrrolizin-7a(5H)-yl)methoxy)-4-((3S,4R)-3-methyl-1,6-diazaspiro[3.4]octan-6-yl)quinazolin-7-yl)-7-fluorobenzo[b]thiophene-3-carbonitrile] | < 5 | < 5 | < 5
12 | CN1CCC[C@H]1COc1nc(N2CCC3(CCN3C(=O)n3cncn3)C2)c2cc(Cl)c(-c3ccc(F)c4sc(N)c(C#N)c34)c(F)c2n1 (stereo partly drawn) [Compound 319, 4-(4-(1-(1H-1,2,4-triazole-1-carbonyl)-1,6-diazaspiro[3.4]octan-6-yl)-6-chloro-8-fluoro-2-(((S)-1-methylpyrrolidin-2-yl)methoxy)quinazolin-7-yl)-2-amino-7-fluorobenzo[b]thiophene-3-carbonitrile] | < 5 | < 5 | < 5
13 | N#Cc1c(N)sc2c(F)ccc(-c3c(Cl)cc4c(N5CCC6(CCCN6C(=O)C6CC6(F)F)C5)nc(OC[C@@]56CCCN5C[C@H](F)C6)nc4c3F)c12 (stereo partly drawn) [Compound 217, 2-amino-4-(6-chloro-4-(1-(2,2-difluorocyclopropane-1-carbonyl)-1,7-diazaspiro[4.4]nonan-7-yl)-8-fluoro-2-(((2R,7aS)-2-fluorotetrahydro-1H-pyrrolizin-7a(5H)-yl)methoxy)quinazolin-7-yl)-7-fluorobenzo[b]thiophene-3-carbonitrile] | < 5 | < 5 | < 5
